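Test compounds were applied to cells in 96-well plates for 48 hours at 5 doses. GI50 = concentration required for 50% inhibition of growth.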 Activity calls are given as the source filed them. Cut-off read from the data, not from the text of the source: active = GI50 up to about 1.1 µM and inactive = higher.
What was measured:
Assay in all cases: NCI anticancer screen, dose series, 48 h
[1] = tested on: OVCAR-5
[2] = tested on: SW-620
[3] = tested on: K562
[4] = tested on: MOLT-4
[5] = tested on: MCF7
[6] = tested on: SK-MEL-2
[7] = tested on: A549
[8] = tested on: UO-31
[9] = tested on: UACC-257
[10] = tested on: Hs-578T
[11] = tested on: CAKI-1
[12] = tested on: EKVX
[13] = tested on: NCI-H460
[14] = tested on: NCI-H23
[15] = tested on: HT-29
[16] = tested on: HOP-62
[17] = tested on: RXF 393
[18] = tested on: KM12
[19] = tested on: SN12C
[20] = tested on: SNB-75
[21] = tested on: A498
[22] = tested on: CCRF-CEM
[23] = tested on: PC-3
[24] = tested on: SK-MEL-28
[25] = tested on: DU-145
[26] = tested on: OVCAR-4
[27] = tested on: SK-MEL-5
[28] = tested on: OVCAR-8
[29] = tested on: SF-295
[30] = tested on: SNB-19
[31] = tested on: LOX IMVI
[32] = tested on: HOP-92
[33] = tested on: HCC 2998
[34] = tested on: M14
[35] = tested on: NCI-H522
[36] = tested on: NCI-H226
[37] = tested on: IGROV-1
[38] = tested on: HL-60
[39] = tested on: OVCAR-3
[40] = tested on: UACC-62
[41] = tested on: T47D
[42] = tested on: RPMI-8226
[43] = tested on: ACHN
[44] = tested on: MDA-N
[45] = tested on: NCI/ADR-RES
[46] = tested on: U-251
[47] = tested on: MDA-MB-435
[48] = tested on: SF-539
[49] = tested on: SK-OV-3
[50] = tested on: BT-549
[51] = tested on: SR
[52] = tested on: HCT-15
[53] = tested on: SF-268
[54] = tested on: 786-0
[55] = tested on: HCT-116
[56] = tested on: COLO 205
[57] = tested on: TK-10
[58] = tested on: MDA-MB-231
[59] = tested on: Malme-3M

Measured: GI50

O=CNNC(=O)CSc1nc2ccc(I)cc2c(=O)n1Cc1ccccc1
active: [4] 0.361 µM | [42] < 0.01 µM
inactive: [1] 61.8 µM | [2] 44.8 µM | [3] 8.79 µM | [5] 37.2 µM | [6] 20.9 µM | [7] 37.4 µM | [8] 1.72 µM | [9] 22.9 µM | [10] 34 µM | [11] 22.2 µM | [12] 23.9 µM | [13] 20 µM | [14] 36.7 µM | [15] 34.9 µM | [16] 37.1 µM | [17] 29.1 µM | [18] 33.4 µM | [19] 28.4 µM | [20] 45 µM | [21] 37.9 µM | [22] 23.7 µM | [23] 39 µM | [24] 79.8 µM | [25] 43.7 µM | [26] 40.4 µM | [27] 18.6 µM | [28] 46.5 µM | [29] 40.6 µM | [30] 46.6 µM | [31] 25.4 µM | [32] 25.4 µM | [33] 26.8 µM | [34] 31.6 µM | [35] 20.9 µM | [36] 49.3 µM | [37] 32.3 µM | [38] 47.5 µM | [39] 21.8 µM | [40] 20.3 µM | [41] 33.4 µM | [43] 34.8 µM | [44] 32.3 µM | [45] 31.3 µM | [46] 36.6 µM | [47] 40.5 µM | [48] 34.6 µM | [49] 49.7 µM | [50] 41.7 µM | [51] 32.2 µM | [53] 35.4 µM | [54] 31.3 µM | [55] 20.4 µM | [56] 17.9 µM | [57] 38.6 µM | [58] 29.3 µM
40.7 µM: [52]

Nc1nc(S)nc2snnc12
> 100 µM: [52]
inactive: [1] > 100 µM | [2] > 100 µM | [3] > 100 µM | [4] > 100 µM | [5] > 100 µM | [6] > 100 µM | [7] > 100 µM | [8] > 100 µM | [9] > 100 µM | [10] > 100 µM | [11] > 100 µM | [13] > 100 µM | [14] > 100 µM | [15] > 100 µM | [16] > 100 µM | [17] > 100 µM | [18] > 100 µM | [19] > 100 µM | [20] > 100 µM | [21] > 100 µM | [22] > 100 µM | [23] > 100 µM | [24] > 100 µM | [25] > 100 µM | [27] > 100 µM | [28] > 100 µM | [29] > 100 µM | [30] > 100 µM | [31] > 100 µM | [32] > 100 µM | [33] > 100 µM | [35] > 100 µM | [36] > 100 µM | [37] > 100 µM | [38] > 100 µM | [39] > 100 µM | [40] > 100 µM | [41] > 100 µM | [42] > 100 µM | [43] > 100 µM | [44] > 100 µM | [45] > 100 µM | [46] > 10 µM | [47] > 100 µM | [48] > 100 µM | [49] > 100 µM | [59] > 100 µM | [50] > 100 µM | [51] > 100 µM | [53] > 100 µM | [54] > 100 µM | [55] > 100 µM | [56] > 100 µM | [57] > 100 µM | [58] > 100 µM

Source: ChEMBL document CHEMBL1201862, “PubChem BioAssay data set” (2004)
